Source: US11555014B2, “High penetration prodrug compositions of prostaglandins and related compounds” (Techfields Pharma Co., Ltd., priority 2006, dated 2023)

What was measured:
[1] = test system: cats with ocular hypertension; assay: Intraocular pressure (IOP) reduction in cats with ocular hypertension produced by laser trabeculoplasty; type: in vivo, cat; settings: for Intraocular pressure, 24 hours after administration / Intraocular pressure, 36 hours after administration / Intraocular pressure, 48 hours after administration / Intraocular pressure, 60 hours after administration / Intraocular pressure, 72 hours after administration: dose 0.001%, one drop topical every 12 hours, 6 doses; for Intraocular pressure, baseline: prior to treatment, group dosed 0.001%
Method: The ability of certain compounds of the present invention to reduce intraocular pressure (IOP) was evaluated in cats with ocular hypertension produced by previously done laser trabeculoplastry. IOP was determined with a pneumatonometer after light corneal anesthesia with dilute proparacaine. Baseline IOP was determined prior to treatment with the test compound aqueous solution. 6 divided doses were administered over a period of 3 days (once every 12 hours). IOP was determined 24 hours after the initial dose and then once every 12 hours. The therapeutically efficient amount is typically between 0.001 and 0.01% in pH 7.2 phosphate buffer (0.1 M). The treatment was carried out in that one drop (about 30 micro liter) of the composition. The results of N,N-diethylaminoethyl 11,15-dihydroxy-9-oxoprost-13-en-1-oate.AcOH (A), N,N-diethylaminoethyl 11,15-dihydroxyl-9-oxoprosta-5,13-dien-1-oate.AcOH (B), N,N-diethylaminoethyl 9,11,15-trihydroxyprosta-5,13-dien-1-oate.AcOH(C), N,N-diethylaminoethyl 9,11-dihydroxy-15-keto-20-ethylprost-5,13-dien-1-oate.AcOH (9,11-dihydroxy-15-keto-20-ethylprostaglandin F2α N,N-diethylaminoethyl ester) (D), N,N-diethylaminoethyl (Z)-7-{(1R,2R,3R,5S)-3,5-dihydroxy-2-[(1E,3R)-3-hydroxy-4-[(α,α,α-trifluoro-m-tolyl)oxy]-1-butenyl]cyclopentyl}-5-heptenoate.AcOH (E), N,N-diethylaminoethyl (Z)-7{(1R,2R,3R,5S)-3,5-dihydroxy-2-[(3R)-3-hydroxy-5-phenylpentyl]cyclopentyl}-5-heptenoate.AcOH (F), and N,N-diethylaminoethyl (Z)-7-{(1R,2R,3R,5S)-3,5-Dihydroxy-2-[(1E,3S)-3-hydroxy-5-phenyl-1-pentenyl]cyclopentyl}-heptenoate.AcOH (G) are shown in Table 2.

[2] = In vitro penetration rate across isolated human skin in modified Franz cells; settings: 10% solution in pH 7.4 phosphate buffer (0.2 M), n=5
Method: The penetration rates of HPPs and their parent drugs through human skin were measured in vitro by modified Franz cells. The Franz cells have two chambers, the top sample chamber and the bottom receiving chamber. The human skin tissue (360-400 μm thick) that separates the top and the receiving chambers was isolated from the anterior or posterior thigh areas.
The compound tested (2 mL, 20% in 0.2 M phosphate buffer, pH. 7.4) were added to the sample chamber of a Franz cell. The receiving chamber contains 10 ml of 2% bovine serum albumin in saline which was stirred at 600 rpm. The cumulative amounts of the tested compounds penetrating the skin versus time were determined by high-performance liquid chromatography (HPLC) method.

cat eye = assay: Irritative effect or ocular discomfort in the cat eye after topical application; type: in vivo; settings: dose 0.001% topical, first 2 hours, scale 0 (no discomfort) to 4 (maximal irritation, complete lid closure)
Method: Irritative effect or ocular discomfort in the cat eye of naturally occurring and modified prostaglandins and their novel prodrugs were evaluated during the first hours after the topical application of the respective test drug. The ocular discomfort was graded on a scale from 0 to 4, 0 indicating complete absence of any signs of discomfort, and 4 indicating maximal irritation as obvious from complete lid closure.

rabbit eye = assay: Conjunctival hyperemia in the rabbit eye after topical application; type: in vivo; settings: dose 0.001% topical, first 2 hours, scale 0 (no hyperemia) to 4 (marked hyperemia with conjunctive chemosis)
Method: Conjunctival hyperemia in the rabbit eye of naturally occurring and modified prostaglandins and their novel prodrugs was evaluated during the first 2 hours after topical application of the respective test drug. The conjunctival hyperemia was graded on a scale from 0 to 4, 0 indicating complete absence of any hyperemia, and 4 indicating marked hyperemia with conjunctive chemosis.

Solubility in water = type: physicochemical
Method: 37.7 g (0.1 mol) of sodium 11,15-dihydroxy-9-oxoprost-13-en-1-oate was dissolved in 100 ml of acetonitrile. 26.1 g (0.1 mol) of 2-Bromo-N,N-diethylethylamine.HBr and 8.6 g of sodium bicarbonate were added into the reaction mixture. The mixture was stirred for overnight at RT. The solvents were evaporated off. 250 ml of ethyl acetate was added into the reaction mixture and the mixture was washed with water (3×100 ml). The organic solution was dried over anhydrous sodium sulfate. Sodium sulfate was removed by filtration. 6 g of acetic acid was added into the reaction mixture with stirring. Hexane (200 ml) was added. The solid product was collected by filtration. After drying, it yielded 42 g of the desired product (81.8%). Hygroscopic product; Solubility in water: 100 mg/ml; Elementary analysis: C28H51NO7; MW: 513.37. Calculated % C, 65.47; H, 10.01; N, 2.73; O, 21.80. Found % C, 65.42; H, 10.03; N, 2.70; O, 21.85.
43.7 g (0.1 mol) of 11,15-diacetoxy-9-oxoprosta-5,13-dien-1-oic acid was dissolved in 300 ml of chloroform. 20.6 g of N,N′-Dicyclohexylcarbodiimide was added into the reaction mixture. 11.7 g of N,N-diethylaminoethylamine was added into the reaction mixture. The mixture was stirred for 3 hours at RT. The solid was removed by filtration. The chloroform solution was washed with 5% NaHCO3 (2×100 ml) and water (3×100 ml). The organic solution was dried over anhydrous sodium sulfate. Sodium sulfate was removed by filtration. 6 g of acetic acid was added into the reaction mixture with stirring. Hexane (200 ml) was added. The solid product was collected by filtration. After drying, it yielded 45 g of the desired product (85.8%). Hygroscopic product; Solubility in water: 100 mg/ml; Elementary analysis: C34H59NO9S; MW: 657.90. Calculated % C, 62.07; H, 9.04; N, 2.13; O, 21.89; S, 4.87. Found % C, 62.02; H, 9.06; N, 2.11; O, 21.95; S, 4.86.
49.9 g (0.1 mol) of 9,11,15-triacetoxyprost-13-en-1-oic acid was dissolved in 300 ml of chloroform. 20.6 g of N,N′-Dicyclohexylcarbodiimide was added into the reaction mixture. 13.1 g of dimethylaminoethyl mercaptan was added into the reaction mixture. The mixture was stirred for 3 hours at RT. The solid was removed by filtration. The chloroform solution was washed with 5% NaHCO3 (2×100 ml) and water (3×100 ml). The organic solution was dried over anhydrous sodium sulfate. Sodium sulfate was removed by filtration. 6 g of acetic acid was added into the reaction mixture with stirring. Hexane (200 ml) was added. The solid product was collected by filtration. After drying, it yielded 45 g of the desired product (85.8%). Hygroscopic product; Solubility in water: 100 mg/ml; Elementary analysis: C32H53NO9; MW: […] Calculated % C, 64.51; H, 8.97; N, 2.35; O, 24.17. Found % C, 64.47; H, 8.99; N, 2.34; O, 24.20.
37.7 g (0.1 mol) of sodium 9,11,15-trihydroxyprosta-5,13-dien-1-oate was dissolved in 100 ml of acetonitrile. 39 g (0.15 mol) of 2-Bromo-N,N-diethylethylamine.HBr in ethyl acetate was added into the reaction mixture. The mixture was stirred for 3 h at RT. Then 8 g of sodium bicarbonate was added into the reaction mixture. The mixture is stirred for another 2 h at RT. The solvents were evaporated off. 250 ml of ethyl acetate was added into the reaction mixture and the mixture was washed with water (3×100 ml). The organic solution was dried over anhydrous sodium sulfate. Sodium sulfate was removed by filtration. 6 g of acetic acid was added into the reaction mixture with stirring. […] Calculated % C, 65.47; H, 10.01; N, 2.73; O, 21.80. […]

rats = assay: Sexual behaviour (solicitation, copulation) of rats after application to genital area; type: in vivo, rat
Method: The HPP of the invention can diffuse through human skin in very high rate (˜1 mg/h/cm^2) and can provide almost side-effects-free methods of treating erectile dysfunction or enhancing female sexual arousal. About 0.01 ml of 0.0005% [˜0.05 μg (microgram)] N,N-diethylaminoethyl 11,15-dihydroxy-9-oxoprost-13-en-1-oate.AcOH in pH 7.0 phosphate buffer (0.1 M) was applied to genital area of male rats (30 rats) once per day for 5 days.
When same amount of N,N-diethylaminoethyl 11,15-dihydroxy-9-oxoprost-13-en-1-oate.AcOH in pH 7.0 phosphate buffer (0.1 M) were applied to genital area of both male rats (30 rats) and female rats (30 rates) once per day for 5 days.

[3] = Milosovich et al., J. Pharm. Sci., 82, 227 (1993); cited from earlier work
[4] = about 0.01 ml of 0.0005% (~0.05 μg) applied to genital area of male rats once per day for 5 days
[5] = same amount applied to genital area of both male and female rats once per day for 5 days

| Compound | Intraocular pressure, 24 hours after administration [1] | Intraocular pressure, 36 hours after administration [1] | Intraocular pressure, 48 hours after administration [1] | Intraocular pressure, 60 hours after administration [1] | Intraocular pressure, 72 hours after administration [1] | Intraocular pressure, baseline [1] | In vitro penetration rate (apparent flux), prodrug compounds [2] [mg/cm^2/h] | Degree of irritative effect (cat eye) | Degree of irritative effect (conjunctival hyperemia) (rabbit eye) | Solubility in water (Solubility in water) [mg/mL] | Increase in copulation compared to rats not given the drug (rats; [4]) [fold] | Increase in solicitation compared to rats not given the drug (rats; [4]) [fold] | Discomfort of treated rats (rats; applied to genital area of rats once per day for 5 days) | Increase in copulation compared to rats not given the drug (rats; [5]) [fold] | Increase in solicitation compared to rats not given the drug (rats; [5]) [fold] | Diffusion through human skin, times faster than the parent drug (TS) [3] |
| --- | --- | --- | --- | --- | --- | --- | --- | --- | --- | --- | --- | --- | --- | --- | --- | --- |
| CC(=O)O.CCCCCC(O)C=C[C@H]1C(O)CC(O)[C@@H]1CC=CCCCC(=O)OCCN(CC)CC (some centres unmarked) [N,N-diethylaminoethyl 9,11,15-trihydroxyprosta-5,13-dien-1-oate.AcOH] | 15.5 ± 0.5 | 15.6 ± 0.6 | 15.7 ± 0.5 | 15.6 ± 0.7 | 15.5 ± 0.6 | 22.5 ± 0.7 | 0.94 | 1 | 1 | 100 |  |  |  |  |  |  |
| CC(=O)O.CCN(CC)CCOC(=O)CCC/C=C\C[C@@H]1[C@@H](CC[C@@H](O)CCc2ccccc2)[C@H](O)C[C@@H]1O [N,N-diethylaminoethyl (Z)-7{(1R,2R,3R,5S)-3,5-dihydroxy-2-[(3R)-3-hydroxy-5-phenylpentyl]cyclopentyl}-5-heptenoate.AcOH] | 15.6 ± 0.5 | 15.7 ± 0.4 | 15.6 ± 0.5 | 15.5 ± 0.4 | 15.6 ± 0.6 | 22.5 ± 0.5 | 0.95 | 1 | 1 |  |  |  |  |  |  |  |
| CC(=O)O.CCCCCC(O)C=CC1C(O)CC(=O)C1CCCCCCC(=O)OCCN(CC)CC (centres unmarked) [N,N-diethylaminoethyl 11,15-dihydroxy-9-oxoprost-13-en-1-oate.AcOH] |  |  |  |  |  |  | 1.01 |  |  | 100 | 4 | 6 | did not show any discomfort | 6 | 6 |  |
| CC(=O)O.CCN(CC)CCOC(=O)CCC/C=C\C[C@@H]1[C@@H](/C=C/[C@@H](O)CCc2ccccc2)[C@H](O)C[C@@H]1O [N,N-diethylaminoethyl (Z)-7-{(1R,2R,3R,5S)-3,5-Dihydroxy-2-[(1E,3S)-3-hydroxy-5-phenyl-1-pentenyl]cyclopentyl}-heptenoate.AcOH] | 15.2 ± 0.6 | 15.4 ± 0.5 | 15.5 ± 0.4 | 15.4 ± 0.6 | 15.4 ± 0.5 | 22.4 ± 0.6 | 0.85 | 1 | 1 |  |  |  |  |  |  |  |
| CC(=O)O.CCCCCC(C=C[C@H]1C(OC(C)=O)CC(OC(C)=O)[C@@H]1CCCCCCC(=O)SCCN(C)C)OC(C)=O (some centres unmarked) [S—(N,N-dimethylaminoethyl) 9,11,15-triacetoxythioprost-13-en-1-oate.AcOH] |  |  |  |  |  |  |  |  |  | 100 |  |  |  |  |  |  |
| CN(C)CCCC(=O)O[C@H]1CC[C@H]2[C@@H]3CCC4=CC(=O)CC[C@]4(C)[C@H]3CC[C@]12C.Cl [TSBH, testosteronyl-4-dimethylaminobutyrate.HCl] |  |  |  |  |  |  |  |  |  |  |  |  |  |  |  | about 60 times |
| N,N-diethylaminoethyl 11,15-diacetoxy-9-oxoprosta-5,13-dien-1-oamide.AcOH |  |  |  |  |  |  |  |  |  | 100 |  |  |  |  |  |  |
| CC(=O)O.CCN(CC)CCOC(=O)CCC/C=C\C[C@@H]1[C@@H](/C=C/[C@@H](O)COc2cccc(C(F)(F)F)c2)[C@H](O)C[C@@H]1O [N,N-diethylaminoethyl (Z)-7-{(1R,2R,3R,5S)-3,5-dihydroxy-2-[(1E,3R)-3-hydroxy-4-[(α,α,α-trifluoro-m-tolyl)oxy]-1-butenyl]cyclopentyl}-5-heptenoate.AcOH] | 15.1 ± 0.4 | 15.0 ± 0.5 | 15.0 ± 0.4 | 14.9 ± 0.3 | 15.1 ± 0.4 | 22.1 ± 0.4 | 0.91 | 1 | 1 |  |  |  |  |  |  |  |
